Measurements reported in ChEMBL document CHEMBL5724914, “Linking interpersonal differences in gut microbiota composition and drug biotransformation activity” (2024).

Key:
[1] = human gut metagenome, 24 h, 2 µM
[2] = The drug is tested on WLS-098 corresponding to human gut metagenome with ENA study accession number: PRJEB37062 and ENA sample accession number: ERS12561754 for biotransformation under anaerobic condition. The drug concentrations were measured over 9 timepoints collected between 0 and 24 hours of incubation by liquid-chromatography-coupled mass spectrometry (LC–MS); conditions: 2 µM
[3] = The drug is tested on Z-019 corresponding to rat gut metagenome with ENA study accession number: PRJEB37062 and ENA sample accession number: ERS12561818 for biotransformation under anaerobic condition. The drug concentrations were measured over 9 timepoints collected between 0 and 24 hours of incubation by liquid-chromatography-coupled mass spectrometry (LC–MS); conditions: 2 µM
[4] = The drug is tested on Z-002 corresponding to rabbit gut metagenome with ENA study accession number: PRJEB37062 and ENA sample accession number: ERS12561802 for biotransformation under anaerobic condition. The drug concentrations were measured over 9 timepoints collected between 0 and 24 hours of incubation by liquid-chromatography-coupled mass spectrometry (LC–MS); conditions: 2 µM
[5] = The drug is tested on Z-001 corresponding to mouse gut metagenome with ENA study accession number: PRJEB37062 and ENA sample accession number: ERS12561801 for biotransformation under anaerobic condition. The drug concentrations were measured over 9 timepoints collected between 0 and 24 hours of incubation by liquid-chromatography-coupled mass spectrometry (LC–MS); conditions: 2 µM
[6] = The drug is tested on WLS-069 corresponding to human gut metagenome with ENA study accession number: PRJEB37062 and ENA sample accession number: ERS12561748 for biotransformation under anaerobic condition. The drug concentrations were measured over 9 timepoints collected between 0 and 24 hours of incubation by liquid-chromatography-coupled mass spectrometry (LC–MS); conditions: 2 µM
[7] = The drug is tested on Z-030 corresponding to mouse gut metagenome with ENA study accession number: PRJEB37062 and ENA sample accession number: ERS12561829 for biotransformation under anaerobic condition. The drug concentrations were measured over 9 timepoints collected between 0 and 24 hours of incubation by liquid-chromatography-coupled mass spectrometry (LC–MS); conditions: 2 µM
[8] = human gut metagenome, 24 h, 2 µM; remark: listed apart in the source
[9] = human gut metagenome, 24 h, 2 µM; remark: listed apart in the source
[10] = The drug is tested on WLS-073 corresponding to human gut metagenome with ENA study accession number: PRJEB37062 and ENA sample accession number: ERS12561749 for biotransformation under anaerobic condition. The drug concentrations were measured over 9 timepoints collected between 0 and 24 hours of incubation by liquid-chromatography-coupled mass spectrometry (LC–MS); conditions: 2 µM
[11] = The drug is tested on WLS-007 corresponding to human gut metagenome with ENA study accession number: PRJEB37062 and ENA sample accession number: ERS12561742 for biotransformation under anaerobic condition. The drug concentrations were measured over 9 timepoints collected between 0 and 24 hours of incubation by liquid-chromatography-coupled mass spectrometry (LC–MS); conditions: 2 µM
[12] = The drug is tested on Z-005 corresponding to metagenome with ENA study accession number: PRJEB37062 and ENA sample accession number: ERS12561805 for biotransformation under anaerobic condition. The drug concentrations were measured over 9 timepoints collected between 0 and 24 hours of incubation by liquid-chromatography-coupled mass spectrometry (LC–MS); conditions: 2 µM
[13] = human gut metagenome, 24 h, 2 µM; remark: listed apart in the source
[14] = human gut metagenome, 24 h, 2 µM; remark: listed apart in the source
[15] = human gut metagenome, 24 h, 2 µM; remark: listed apart in the source
[16] = human gut metagenome, 24 h, 2 µM; remark: listed apart in the source
[17] = The drug is tested on Z-027 corresponding to metagenome with ENA study accession number: PRJEB37062 and ENA sample accession number: ERS12561826 for biotransformation under anaerobic condition. The drug concentrations were measured over 9 timepoints collected between 0 and 24 hours of incubation by liquid-chromatography-coupled mass spectrometry (LC–MS); conditions: 2 µM
[18] = The drug is tested on Z-007 corresponding to rat gut metagenome with ENA study accession number: PRJEB37062 and ENA sample accession number: ERS12561807 for biotransformation under anaerobic condition. The drug concentrations were measured over 9 timepoints collected between 0 and 24 hours of incubation by liquid-chromatography-coupled mass spectrometry (LC–MS); conditions: 2 µM
[19] = human gut metagenome, 24 h, 2 µM; remark: listed apart in the source
[20] = The drug is tested on Z-020 corresponding to rabbit gut metagenome with ENA study accession number: PRJEB37062 and ENA sample accession number: ERS12561819 for biotransformation under anaerobic condition. The drug concentrations were measured over 9 timepoints collected between 0 and 24 hours of incubation by liquid-chromatography-coupled mass spectrometry (LC–MS); conditions: 2 µM
Also: call rule not given here.

Structure (SMILES)	Bacterial Biotransformation [1]	Bacterial Biotransformation [2]	Bacterial Biotransformation [3]	Bacterial Biotransformation [4]	Bacterial Biotransformation [5]	Bacterial Biotransformation [6]	Bacterial Biotransformation [7]	Bacterial Biotransformation [8]	Bacterial Biotransformation [9]	Bacterial Biotransformation [10]	Bacterial Biotransformation [11]	Bacterial Biotransformation [12]	Bacterial Biotransformation [13]	Bacterial Biotransformation [14]	Bacterial Biotransformation [15]	Bacterial Biotransformation [16]	Bacterial Biotransformation [17]	Bacterial Biotransformation [18]	Bacterial Biotransformation [19]	Bacterial Biotransformation [20]
O=C(NCc1ccccc1)OCCO [BURAMATE]	Compound NOT metabolized	Compound NOT metabolized	Compound NOT metabolized	Compound NOT metabolized	Compound NOT metabolized	Compound NOT metabolized	Compound NOT metabolized	Compound NOT metabolized	Compound NOT metabolized	Compound NOT metabolized	Compound NOT metabolized	Compound NOT metabolized	Compound NOT metabolized	Compound NOT metabolized	Compound NOT metabolized	Compound NOT metabolized	Compound NOT metabolized	Compound NOT metabolized	Compound NOT metabolized	
CCCCCCOC(=O)/N=C(/N)c1ccc(NCc2nc3cc(C(=O)N(CCC(=O)OCC)c4ccccn4)ccc3n2C)cc1.CS(=O)(=O)O [DABIGATRAN ETEXILATE MESYLATE]			Compound NOT metabolized	Compound NOT metabolized	Compound NOT metabolized		Compound NOT metabolized					Compound NOT metabolized			Compound NOT metabolized	Compound NOT metabolized	Compound NOT metabolized	Compound NOT metabolized	Compound NOT metabolized	Compound NOT metabolized
OCCN1CCN(CCCN2c3ccccc3Sc3ccc(C(F)(F)F)cc32)CC1 [FLUPHENAZINE]	Compound NOT metabolized	Compound NOT metabolized		Compound metabolized	Compound metabolized	Compound metabolized	Compound NOT metabolized	Compound metabolized	Compound metabolized	Compound metabolized	Compound NOT metabolized	Compound metabolized	Compound metabolized	Compound metabolized	Compound metabolized		Compound NOT metabolized	Compound NOT metabolized	Compound NOT metabolized	Compound NOT metabolized
c1ccc([C@H]2CN3CCSC3=N2)cc1 [LEVAMISOLE]	Compound NOT metabolized		Compound NOT metabolized	Compound metabolized	Compound NOT metabolized	Compound metabolized	Compound NOT metabolized	Compound metabolized	Compound metabolized		Compound metabolized		Compound metabolized	Compound metabolized	Compound metabolized	Compound metabolized	Compound NOT metabolized	Compound NOT metabolized	Compound metabolized	Compound NOT metabolized
C#C[C@]1(O)CC[C@H]2[C@@H]3CCC4=CC(=O)CC[C@@H]4[C@H]3CC[C@@]21CC [LEVONORGESTREL]	Compound NOT metabolized	Compound metabolized	Compound metabolized	Compound metabolized	Compound NOT metabolized	Compound metabolized	Compound NOT metabolized		Compound metabolized	Compound NOT metabolized	Compound metabolized		Compound metabolized	Compound metabolized	Compound metabolized		Compound metabolized	Compound metabolized	Compound metabolized	Compound metabolized
COc1c(C)c2c(c(O)c1C/C=C(\C)CCC(=O)OCCN1CCOCC1)C(=O)OC2 [MYCOPHENOLATE MOFETIL]	Compound metabolized	Compound metabolized	Compound NOT metabolized	Compound metabolized	Compound metabolized	Compound metabolized	Compound NOT metabolized	Compound metabolized	Compound metabolized	Compound metabolized	Compound metabolized	Compound metabolized	Compound metabolized	Compound metabolized	Compound metabolized	Compound metabolized	Compound metabolized	Compound metabolized	Compound metabolized	
